Test results published in a melting point compilation (Tetko et al.; mined from patent text by program, amines drawn as free bases though some values may be those of a salt).

Row | Compound | melting point
1 | Oc1cccc2c1OCO2 | 62 to 63 °C
2 | Oc1ccc(F)nc1I | 96 to 98 °C
3 | O=C1c2ccccc2C(=O)N1c1c(F)cc(Cl)c2c1CCCO2 | 198 to 200 °C
4 | CC(C)[C@@H]1CC[C@@H](C)C[C@H]1OCC(=O)N(C)CCO | 65 to 66 °C
5 | Cc1nc(N2CCN(CC3CCCC3)C2=O)sc1C(=O)NCc1cccnc1 | 142 to 143 °C
6 | Cc1ccc(S(=O)(=O)Oc2cc(C=O)cc(OS(=O)(=O)c3ccc(C)cc3)c2OS(=O)(=O)c2ccc(C)cc2)cc1 | 159 °C
7 | CC(=O)NCc1ccc(CN2CCN(c3ccccn3)CC2)cc1 | 100 to 101 °C
8 | COc1ccc(C=O)cc1C | 120 °C
9 | Cc1nc(-n2ccc(C(F)(F)F)cc2=O)sc1C(=O)NCc1ccccc1 | 197 to 198 °C
10 | CCCCCCCOc1c(OC)cc(N)c2nccc(C)c12 | 68 to 70 °C
11 | CN(CCC12CC3CC(CC(C3)C1)C2)C(=O)NCCCc1ccncc1 | 99 to 109 °C
12 | CC(C)(C)OC(=O)NC1CCN(C2CCN(Cc3ccccc3)CC2)C1 (stereo unspecified) | 118 °C
13 | COc1nnc(C)c(-c2ccc(SC)cn2)c1-c1ncc(Cl)cc1Cl | 147 to 149 °C
14 | COc1cccc2c1C(=O)C(Br)=C(Br)C2=O | 190 °C
15 | O=C1CCC2=C(CCc3cc(Cl)ccc32)N1 | 228 to 230 °C
16 | O=S1(=O)N=CN(C2CC2)c2c1ccc(Br)c2F | 244 to 247 °C
17 | CCNc1nc2ccc(CCc3ccccn3)cc2o1 | 57 to 59 °C
18 | CN1CCCC(c2cccc3c2CC(=O)N3)C1 (stereo unspecified) | 160 °C
19 | Cc1ccc(S(=O)(=O)C2=C(C(=O)OC3CCCCC3)C(=O)C=C(C(=O)OC3CCCCC3)C2=O)cc1 | 135 to 137 °C
20 | N#Cc1ccc(CBr)c(Cl)c1 | 83 to 85 °C
21 | O=C(CN1CCN(c2ncccn2)CC1)c1ccc(-c2cccc(C(F)(F)F)c2)nc1 | 124 to 126 °C
22 | COc1cc2cnn(CCCl)c(=O)c2cc1OC | 181 to 183 °C
23 | CN1CCC(Nc2ccccc2OCc2ccccc2)CC1 | 90 to 95 °C
24 | CN(CCOc1ccc([N+](=O)[O-])cc1)CCc1ccc([N+](=O)[O-])cc1 | 74 °C
25 | CC1(C)Cc2cc(O)c3c(c2C(c2cccc(-c4ccncc4)c2)=N1)CC(C)(C)O3 | 141 to 149 °C
26 | O=c1cc(-c2ccccc2)oc2ccc(OCCCCCCCCN3CCC(O)CC3)cc12 | 57 to 58 °C

Row | Compound | melting point
27 | CC(C)(C)NCC(O)COc1cccc2[nH]c(=S)[nH]c12 (stereo unspecified) | 214 to 216 °C
28 | Fc1cc(Cl)ccc1NC(=S)C1CCCC=C1N1CCOCC1 (stereo unspecified) | 86 to 88 °C
29 | COC(=O)C[C@H](Cc1ccccc1)NC(=O)OCC(C)C | 50 to 52 °C
30 | O=S(=O)(C=Cc1ccccc1)N1CCc2c([nH]c3ccccc23)C1c1ccc2c(c1)OCO2 (stereo unspecified) | 191 to 192 °C
31 | N#Cc1ccccc1C(C#N)c1ccc(F)cc1 (stereo unspecified) | 87 to 89 °C
32 | O=C1NC(=O)C2(CCCc3ncc(Cl)cc32)N1 (stereo unspecified) | 230 to 233 °C
33 | O=C(Nc1ccccc1)N1CCc2ccccc2C1 | 145 to 146 °C
34 | c1ccc2c(c1)Cc1c(-c3ccsc3)n[nH]c1-2 | 219 to 220 °C
35 | CC(O)CC#Cc1cc(CN2CCOCC2)cc2c(=O)c(C(=O)NCc3ccc(Cl)cc3)cn(C)c12 (stereo unspecified) | 178 to 180 °C
36 | N#CC(C=O)c1cnccn1 (stereo unspecified) | 192 to 194 °C
37 | N#Cc1ccc2oc(-c3cccc(O)c3)cc2c1 | 222 to 224 °C
38 | Cn1ccc2cc(NC(=O)c3cc4ccccc4n3Cc3cccc(C(F)(F)F)c3)ccc21 | 189 to 190 °C
39 | CC(C)N(Cc1c(-c2ccccc2)sc(N)c1C(=O)c1ccc(Cl)cc1)C(C)C | 185 to 187 °C
40 | CC(C)(C)C(=O)Nc1ncc(Cl)cc1C=O | 169 to 171 °C
41 | CCCCN(C1CCCOc2ccccc21)S(C)(=O)=O (stereo unspecified) | 78 to 79 °C
42 | COCc1cc2c(s1)CCCc1cc(=O)n(-c3ccc(Cl)cc3)nc1-2 | 135 to 137 °C
43 | CCSC1=C(NC(=O)CN2CCN(CCSc3nc4c(C)c(Cl)cc(C(C)C)c4o3)CC2)C=CC(C)(SCC)N1 (stereo unspecified) | 120 to 122 °C
44 | CN1C[C@H](CN2CCC(O)(c3ccc(Cl)cc3)CC2)C=C2c3cccc4c3c(cn4C)C[C@H]21 | 101 to 107 °C
45 | O=C1CN2CCOC2(c2ccccc2F)c2cc(Cl)ccc2N1CCO (stereo unspecified) | 141 to 146 °C
46 | CSc1snc(OCC#CI)c1C#N | 145 to 146 °C
47 | COc1ccc(CCSc2c(O)cc(-c3ccccc3)oc2=O)cc1 | 144 to 145 °C
48 | O=C(c1ccc(F)cc1)C1CCN(C2CN(Cc3ccncc3)CCC2O)CC1 (stereo unspecified) | 182 °C
49 | Cc1ccccc1C(=O)Nc1ccc(C(=O)N2Cc3cccn3Cc3ccccc32)cc1Cl | 176 to 178 °C
50 | CC(C(N)=O)c1ccc(Oc2ccccc2F)cc1 (stereo unspecified) | 106 to 108 °C
51 | O=C(N[C@H]1C[C@H](C(=O)O)Nc2cc(Cl)cc(Cl)c21)C1CCCCC1 (relative stereo) | 190 to 195 °C
52 | COC(=O)C=Cc1ccc2c(ccn2S(=O)(=O)c2ccccc2)c1 | 134 to 136 °C

Row | Compound | melting point
53 | O=C(O)C1=NN(c2ccc(Cl)cc2)C(c2ccccc2)C1 (stereo unspecified) | 177 to 179 °C
54 | CCc1ccn(-c2ccc(S(C)(=O)=O)cc2)c1-c1ccc(F)cc1 | 107 to 108 °C
55 | CNc1c(S(=O)(=O)C(F)(F)F)c(C)nn1-c1c(Cl)cc(C(F)(F)F)cc1Cl | 139 to 140 °C
56 | Cc1cc(C)n2ncc(Br)c2n1 | 115 to 116 °C
57 | Cc1ccc(-c2cc(NCCNc3cc(-c4cccs4)[nH]n3)n[nH]2)cc1 | 148 °C
58 | Cc1cc(Cl)cc(Cl)c1CNc1c(NC(C)(C)C)c(=O)c1=O | 264 to 268 °C
59 | CCOC(=O)c1cc(-c2ccc(Cl)cc2)cnc1C(F)(F)F | 84 to 85 °C
60 | O=C1c2ccccc2C(=O)N1CC(=O)N1c2ccccc2N(c2ccccc2)C(=O)C2CCCC21 (stereo unspecified) | 272 to 273 °C
61 | CSc1snc(SCOCC#CI)c1C#N | 87 to 88 °C
62 | CC(C)(C)NCC(O)COc1ccc2c(=O)cc(-c3ccc(OCc4ccccc4)c(OCc4ccccc4)c3)oc2c1 (stereo unspecified) | 159 to 161 °C
63 | CCOc1ccc(CN2C(=O)SC(S(=O)(=O)c3ccc(C)cc3)C2=O)c(OCC)c1 (stereo unspecified) | 121 to 123 °C
64 | CC(C)(C)Nc1c(NCc2ccc(F)cc2)c(=O)c1=O | 296 to 298 °C
65 | CC(CF)(CF)C(=O)NC(CO)c1ccc(C(C)(C)C)cc1 (stereo unspecified) | 141 °C
66 | COC(=O)NCC1Cc2cc(Cl)cc(C3CCCCC3)c2O1 (stereo unspecified) | 100 to 103 °C
67 | Nc1ccc(OC(F)(F)F)c(-c2nc3ccccc3o2)c1 | 133 to 135 °C
68 | Cc1ccc(S(=O)(=O)OCC2CCc3cc(C#N)ccc3C2)cc1 (stereo unspecified) | 100 to 102 °C
69 | Oc1ccccc1[C@@H]1C[C@H]2C=C(c3c[nH]c(-c4ccc(F)cc4)c3-c3ccncc3)CCN2C1 | 195 to 196 °C
70 | COC(=O)C(c1ccccc1)n1cncc1C=O (stereo unspecified) | 106 to 109 °C
71 | CCc1c(C(=O)c2cc(C)cc(C)c2)n(CC=CC(=O)OC(C)C)c(=O)[nH]c1=O | 175 to 176 °C
72 | COC(=O)Nc1nc(C)c(-c2nc3ccccc3c(=O)n2-c2ccccc2Cl)s1 | 243 to 245 °C
73 | Cc1ccnc2c(Oc3ccc(N)cc3)cccc12 | 157 to 159 °C
74 | O=[N+]([O-])c1cccc(-c2nnc(Cl)s2)c1 | 162 to 165 °C
75 | CCOC(=O)C(Cc1ccc(S)cc1)(NC(C)=O)C(=O)OCC | 125 to 128 °C
76 | Cc1nc(-c2cccc(-n3cnc4cc(I)ccc43)c2)cs1 | 163 to 164 °C
77 | Cc1nc2c(s1)C(=O)C=C(NCCCN(C)CCCNC1=CC(=O)c3sc(C)nc3C1=O)C2=O | 94 to 96 °C
78 | CS(=O)(=O)c1ccc(-c2cnn(CC(=O)c3ccc(OC(F)(F)F)cc3)c(=O)c2-c2ccc(F)cc2)cc1 | 160 to 161 °C

Row | Compound | melting point
79 | CCN1CC2=C(C1)CN(c1c(F)cc3c(=O)c(C(=O)O)cn(C4CC4)c3c1F)C2 | 188 to 192 °C
80 | c1ccc2c(c1)CCN(c1ccncc1)C2 | 95 to 96 °C
81 | CC(C)c1c(CO)n(-c2ccc(F)cc2)c(=O)c2ccccc12 | 157 to 158 °C
82 | CCn1c(=O)c2c(nc(/C=C/c3cc4c(c(OC(C)=O)c3)OCO4)n2C)n(CC)c1=O | > 270 °C
83 | CC(=O)OCC(=O)C1C(C)CC2C3CC(Cl)C4=CC(=O)C=CC4(C)C34OC4CC21C (stereo unspecified) | 189 °C
84 | O=C(NCC1(O)CCCCCC1)c1cc(-c2ccc(Cl)c(C(=O)O)n2)ccc1Cl | 146 to 149 °C
85 | CC(=O)NCCCc1nc2cc(C3=NNC(=O)CC3C)ccc2[nH]1 (stereo unspecified) | 244 to 246 °C
86 | OCCCCOC(c1ccccc1)(c1ccccc1)c1ccccc1 | 73 to 74 °C
87 | CCCCCCCCCCCCNC(=O)C(CC(=O)O)Sc1nc2ccccc2s1 (stereo unspecified) | 117 to 121 °C
88 | COc1cc(N)c2c(c1)OC(C)C2 (stereo unspecified) | 59 to 61 °C
89 | N#Cc1cccc(C(=O)N[C@H]2C[C@H](C(=O)O)Nc3cc(Cl)cc(Cl)c32)c1 (relative stereo) | 229 to 231 °C
90 | COC(=O)/C=C/c1c(SC(F)(F)F)c(C#N)nn1-c1c(Cl)cc(C(F)(F)F)cc1Cl | 90 °C
91 | COc1ccc(OC(F)(F)F)cc1[C@H]1CO[C@]2(CCCN[C@H]2c2ccccc2)C1 | 91 to 104 °C
92 | CN(CC(=O)NC1(c2ccccc2Cl)C(=O)Nc2ccc(Cl)cc21)CC(=O)OC(C)(C)C (stereo unspecified) | 200 °C
93 | Cc1cc(C)c(-c2cn(C)c3c(O)ncnc23)c(C)c1 | 230 to 232 °C
94 | O=C1Nc2cccc(Cl)c2C12COc1cc3c(cc12)CCO3 (stereo unspecified) | > 200 °C
95 | CCCCCCC#Cc1ccc(C=C(C(=O)O)C(=O)O)s1 | 106 °C
96 | Fc1ccc(C(CN2CCCC2)=C2SCCCS2)cc1 | 69 to 70 °C
97 | Cc1cc(C2(C(F)(F)F)CC(c3ccc(Cl)cc3)=NN2C)ccc1NC(=O)c1cccc(I)c1C(=O)NC(C)C (stereo unspecified) | 90 to 92 °C
98 | CCCc1nc2c(N)nc3cc(OCCN4CCCC4)ccc3c2s1 | 124 to 127 °C
99 | COC1C(OC(=O)c2ccc(N)cc2)C=C(C)C(=O)CC1(C)C (stereo unspecified) | 159 to 161 °C
100 | Cc1cc(-n2ccnc2)c2cccc(OCc3c(Cl)ccc(S(=O)(=O)N4CCC[C@H]4C(=O)NCC4CCN(Cc5cccnc5)CC4)c3Cl)c2n1 | 107 °C
101 | CCOC(=O)C1=C(C)NC(C)=C(C(=O)OCCC#N)C1c1ccccc1/C=C/C(=O)OC(C)(C)C (stereo unspecified) | 168 to 169 °C
